Source: patent publication US7928107B2, “Quinazolines useful as modulators of ion channels” (Vertex Pharmaceuticals Incorporated, priority 2004, dated 2011)

Target: NaV 1.8 channel (Homo sapiens, UniProt Q9Y5Y9)
Assay: Activity against NaV 1.8 channel (optical membrane potential assay)
Assay type: cell-based
Experimental: Compounds of the invention are useful as antagonists of voltage-gated sodium ion channels. Antagonist properties of test compounds were assessed as follows. Cells expressing the NaV of interest were placed into microtiter plates. After an incubation period, the cells were stained with fluorescent dyes sensitive to the transmembrane potential. The test compounds were added to the microtiter plate. The cells were stimulated with either a chemical or electrical means to evoke a NaV dependent membrane potential change from unblocked channels, which was detected and measured with trans-membrane potential-sensitive dyes. Antagonists were detected as a decreased membrane potential response to the stimulus. The optical membrane potential assay utilized voltage-sensitive FRET sensors described by Gonzalez and Tsien (See, Gonzalez, J. E. and R. Y. Tsien (1995) “Voltage sensing by fluorescence resonance energy transfer in single cells” Biophys J 69(4): 1272-80, and Gonzalez, J. E. and R. Y. Tsien (1997) “Improved indicators of cell membrane potential that use fluorescence resonance energy transfer” Chem Biol 4(4): 269-77) in combination with instrumentation for measuring fluorescence changes such as the Voltage/Ion Probe Reader (VIPR®) (See, Gonzalez, J. E., K. Oades, et al. (1999) “Cell-based assays and instrumentation for screening ion-channel targets” Drug Discov Today 4(9): 431-439).
24 hours before the assay on VIPR, CHO cells endogenously expressing a NaV1.2 type voltage-gated NaV are seeded in 96-well poly-lysine coated plates at 60,000 cells per well. Other subtypes are performed in an analogous mode in a cell line expressing the NaV of interest. • 1) On the day of the assay, medium is aspirated and cells are washed twice with 225 μL of Bath Solution #2 (BS#2). • 2) A 15 uM CC2-DMPE solution is prepared by mixing 5 mM coumarin stock solution with 10% Pluronic 127 1:1 and then dissolving the mix in the appropriate volume of BS#2. • 3) After bath solution is removed from the 96-well plates, the cells are loaded with 80 μL of the CC2-DMPE solution. Plates are incubated in the dark for 30 minutes at room temperature. • 4) While the cells are being stained with coumarin, a […] solution in BS#2 is prepared. In addition to DiSBAC2(3), this solution should contain 0.75 mM ABSCl and […] (prepared from 10 mM EtOH stock, Sigma #V-5754). • 5) After 30 minutes, CC2-DMPE is removed and the cells are washed twice with 225 μL of BS#2. As before, the residual volume should be 40 μL. • 6) Upon removing the bath, the cells are loaded with 80 μL of the DiSBAC2(3) solution, after which test compound, dissolved in DMSO, is added to achieve the desired test concentration to each well from the drug addition plate and mixed thoroughly. The volume in the well should be roughly 121 μL. The cells are then incubated for 20-30 minutes. • 7) Once the incubation is complete, the cells are ready to be assayed on VIPR® with a sodium add back protocol. 120 μL of Bath solution #1 is added to stimulate the NaV dependent depolarization. […] was used as an antagonist positive control for block of the NaV channel.
Data are analyzed and reported as normalized ratios of background-subtracted emission intensities measured in the 460 nm and 580 nm channels. Background intensities are then subtracted from each assay channel. Background intensities are obtained by measuring the emission intensities during the same time periods from identically treated assay wells in which there are no cells. The response as a function of time is then reported as the ratios obtained using the following formula: […]
The data is further reduced by calculating the initial (Ri) and final (Rf) ratios. These are the average ratio values during part or all of the pre-stimulation period, and during sample points during the stimulation period. The response to the stimulus R=Rf/Ri is then calculated. […]

Sequence of NaV 1.8 channel (Q9Y5Y9 whole entry): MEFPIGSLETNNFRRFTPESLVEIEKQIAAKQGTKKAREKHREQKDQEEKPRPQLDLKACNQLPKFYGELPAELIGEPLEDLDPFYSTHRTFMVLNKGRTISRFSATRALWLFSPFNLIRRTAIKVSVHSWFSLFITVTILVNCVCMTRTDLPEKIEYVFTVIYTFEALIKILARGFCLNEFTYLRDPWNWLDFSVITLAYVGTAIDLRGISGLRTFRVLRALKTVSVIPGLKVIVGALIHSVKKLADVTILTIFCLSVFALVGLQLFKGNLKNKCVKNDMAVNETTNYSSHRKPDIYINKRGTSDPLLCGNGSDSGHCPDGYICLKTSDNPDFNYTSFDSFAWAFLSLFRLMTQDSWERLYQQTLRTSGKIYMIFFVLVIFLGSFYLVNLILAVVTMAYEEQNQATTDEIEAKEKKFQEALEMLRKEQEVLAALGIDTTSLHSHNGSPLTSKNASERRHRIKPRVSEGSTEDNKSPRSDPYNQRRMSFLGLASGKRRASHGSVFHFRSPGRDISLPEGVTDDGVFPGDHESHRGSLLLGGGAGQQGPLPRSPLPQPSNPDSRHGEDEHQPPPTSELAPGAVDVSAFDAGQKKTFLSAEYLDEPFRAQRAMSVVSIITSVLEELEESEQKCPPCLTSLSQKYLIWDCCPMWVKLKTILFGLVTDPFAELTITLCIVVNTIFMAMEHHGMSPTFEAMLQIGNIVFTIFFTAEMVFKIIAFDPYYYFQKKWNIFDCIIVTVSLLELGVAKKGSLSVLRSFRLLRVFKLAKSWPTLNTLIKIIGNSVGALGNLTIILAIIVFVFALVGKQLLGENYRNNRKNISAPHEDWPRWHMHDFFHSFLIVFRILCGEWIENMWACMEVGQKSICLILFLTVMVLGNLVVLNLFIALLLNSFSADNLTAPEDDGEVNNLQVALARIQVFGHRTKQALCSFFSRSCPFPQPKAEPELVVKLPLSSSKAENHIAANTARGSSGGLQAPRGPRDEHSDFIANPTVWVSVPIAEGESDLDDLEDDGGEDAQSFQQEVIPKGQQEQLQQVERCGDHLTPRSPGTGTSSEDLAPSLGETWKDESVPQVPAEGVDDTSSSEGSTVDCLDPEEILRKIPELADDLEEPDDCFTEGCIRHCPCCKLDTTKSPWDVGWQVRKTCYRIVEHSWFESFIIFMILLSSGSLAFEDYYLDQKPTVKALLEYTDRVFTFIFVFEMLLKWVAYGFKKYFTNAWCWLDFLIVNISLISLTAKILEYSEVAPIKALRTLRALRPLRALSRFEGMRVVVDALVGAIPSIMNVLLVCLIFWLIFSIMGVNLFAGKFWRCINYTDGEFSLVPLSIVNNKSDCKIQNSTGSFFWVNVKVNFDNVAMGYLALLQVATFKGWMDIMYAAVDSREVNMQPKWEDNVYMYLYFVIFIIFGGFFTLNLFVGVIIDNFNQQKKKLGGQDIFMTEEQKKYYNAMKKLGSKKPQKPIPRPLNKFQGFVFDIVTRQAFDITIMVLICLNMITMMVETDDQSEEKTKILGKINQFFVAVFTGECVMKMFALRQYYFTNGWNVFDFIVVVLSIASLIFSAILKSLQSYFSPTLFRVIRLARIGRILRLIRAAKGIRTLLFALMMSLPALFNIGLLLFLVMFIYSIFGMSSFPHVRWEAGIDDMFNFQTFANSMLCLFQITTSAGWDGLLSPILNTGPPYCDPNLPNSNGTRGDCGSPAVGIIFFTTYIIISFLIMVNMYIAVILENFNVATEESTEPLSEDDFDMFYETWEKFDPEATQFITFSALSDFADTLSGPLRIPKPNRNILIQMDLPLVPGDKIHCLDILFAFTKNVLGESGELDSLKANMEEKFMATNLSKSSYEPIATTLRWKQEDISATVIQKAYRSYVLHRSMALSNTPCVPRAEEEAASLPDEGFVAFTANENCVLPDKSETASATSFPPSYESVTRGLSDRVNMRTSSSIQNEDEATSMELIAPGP

SMILES	IC50 [µM]
Cc1ccc2c(N3CCN(C(=O)OCc4ccncc4)CC3)nc(-c3c(O)cccc3F)nc2c1 [Example 114, (Pyridin-4-yl)methyl 4-(2-(2-fluoro-6-hydroxyphenyl)-7-methylquinazolin-4-yl)piperazine-1-carboxylate]	2 to 10
Cc1ccc2c(N3CCC[C@@H](CNC(=O)O[C@H]4CCOC4)C3)nc(-c3c(O)cccc3F)nc2c1 [Example 231, (S)-Tetrahydrofuran-3-yl ((S)-1-(2-(2-fluoro-6-hydroxyphenyl)-7-methylquinazolin-4-yl)piperidin-3-yl)methylcarbamate]	2 to 10
Cc1ccc2c(N3CCC[C@@H](NC(=O)[C@H]4CCCO4)C3)nc(-c3ccccc3O)nc2c1 [Example 206, (2R)-Tetrahydro-N—((R)-1-(2-(2-hydroxyphenyl)-7-methylquinazolin-4-yl)piperidin-3-yl)furan-2-carboxamide]	2 to 10
Cc1ccc2c(N3CCN(C(=O)[C@H](O)CC(=O)O)CC3)nc(-c3ccccc3O)nc2c1 [Example 145, (R)-3-Hydroxy-4-(4-(2-(2-hydroxyphenyl)-7-methylquinazolin-4-yl)piperazin-1-yl)-4-oxobutanoic acid]	> 10
Cc1ccc2c(N3CCN(C(=O)[C@H]4CCCO4)CC3)nc(-c3ccccc3O)nc2c1 [Example 187]	2 to 10
Cc1ccc2c(N3CCN(C(=O)[C@H](O)CC(C)C)CC3)nc(-c3c(C)cccc3O)nc2c1 [Example 150, (R)-2-Hydroxy-1-(4-(2-(2-hydroxy-6-methylphenyl)-7-methylquinazolin-4-yl)piperazin-1-yl)-4-methylpentan-1-one]	> 10
Cc1ccc2c(N3CCC(NC(=O)OCc4cccc5c4OCO5)CC3)nc(-c3ccccc3O)nc2c1 [Example 229, (Benzo[d][1,3]dioxol-7-yl)methyl 1-(2-(2-hydroxyphenyl)-7-methylquinazolin-4-yl)piperidin-4-ylcarbamate]	> 10
CC[C@@H](O)C(=O)NC1CCN(c2nc(-c3ccccc3O)nc3cc(C)ccc23)CC1 [Example 243, (2R)-2-Hydroxy-N-(1-(2-(2-hydroxyphenyl)-7-methylquinazolin-4-yl)piperidin-4-yl)butanamide]	> 10
CC(C)C[C@@H](O)C(=O)N1CCN(c2nc(-c3ccccc3O)nc3ccc(F)cc23)CC1 [Example 143, (R)-1-(4-(6-Fluoro-2-(2-hydroxyphenyl)quinazolin-4-yl)piperazin-1-yl)-2-hydroxy-4-methylpentan-1-one]	2 to 10
O=C(OCc1cccnc1)N1CCN(c2nc(-c3ccccc3O)nc3ccccc23)CC1 [Example 107, (Pyridin-3-yl)methyl 4-(2-(2-hydroxyphenyl)quinazolin-4-yl)piperazine-1-carboxylate]	2 to 10
CC[C@H](O)C(=O)NC1CCN(c2nc(-c3ccccc3O)nc3cc(C)ccc23)CC1 [Example 244, (2S)-2-Hydroxy-N-(1-(2-(2-hydroxyphenyl)-7-methylquinazolin-4-yl)piperidin-4-yl)butanamide]	> 10
Cc1ccc2c(N3CC[C@H](CNC(=O)OCc4ccccc4)C3)nc(-c3ccccc3O)nc2c1 [Example 362, Benzyl ((R)-1-(2-(2-hydroxyphenyl)-7-methylquinazolin-4-yl)pyrrolidin-3-yl)methylcarbamate]	> 10
CCOC(=O)NC[C@@H]1CCCN(c2nc(-c3c(O)cccc3F)nc3cc(C)ccc23)C1 [Example 262, Ethyl ((S)-1-(2-(2-fluoro-6-hydroxyphenyl)-7-methylquinazolin-4-yl)piperidin-3-yl)methylcarbamate]	2 to 10
Cc1ccc2c(N3CC[C@@H](NC(=O)C4CCOCC4)C3)nc(-c3ccccc3O)nc2c1 [Example 316, Tetrahydro-N—((R)-1-(2-(2-hydroxyphenyl)-7-methylquinazolin-4-yl)pyrrolidin-3-yl)-2H-pyran-4-carboxamide]	> 10
CCCCC(O)C(=O)NC1CCN(c2nc(-c3ccccc3O)nc3ccccc23)CC1 (stereo not drawn) [Example 238, 2-Hydroxy-N-(1-(2-(2-hydroxyphenyl)quinazolin-4-yl)piperidin-4-yl)hexanamide]	> 10
Cc1ccc2c(N3CC[C@@H](NC(=O)C4C(C)(C)C4(C)C)C3)nc(-c3ccccc3O)nc2c1 [Example 340, N—((R)-1-(2-(2-Hydroxyphenyl)-7-methylquinazolin-4-yl)pyrrolidin-3-yl)-2,2,3,3-tetramethylcyclopropanecarboxamide]	< 2
Cc1ccc2c(N3CCC[C@H](CNC(=O)O[C@H]4CCOC4)C3)nc(-c3ccccc3O)nc2c1 [Example 217, (S)-Tetrahydrofuran-3-yl ((R)-1-(2-(2-hydroxyphenyl)-7-methylquinazolin-4-yl)piperidin-3-yl)methylcarbamate]	> 10
Cc1ccc2c(N3CC[C@@H](NC(=O)c4ccccn4)C3)nc(-c3ccccc3O)nc2c1 [Example 354, N—((R)-1-(2-(2-Hydroxyphenyl)-7-methylquinazolin-4-yl)pyrrolidin-3-yl)picolinamide]	2 to 10
COCCOC(=O)NCC1CN(c2nc(-c3ccccc3O)nc3cc(C)ccc23)C1 [Example 419]	2 to 10
Cc1ccc2c(N3CC[C@H](NC(=O)OC(C)(C)C)C3)nc(-c3ccccc3O)nc2c1 [Example 370, tert-Butyl (S)-1-(2-(2-hydroxyphenyl)-7-methylquinazolin-4-yl)pyrrolidin-3-ylcarbamate]	< 2
Cc1ccc2c(N3CCN(C(=O)C(O)CCl)CC3)nc(-c3ccccc3O)nc2c1 (stereo not drawn) [Example 179, 3-Chloro-2-hydroxy-1-(4-(2-(2-hydroxyphenyl)-7-methylquinazolin-4-yl)piperazin-1-yl)propan-1-one]	> 10
Cc1ccc2c(N3CCN(C(=O)O[C@H]4CCOC4)CC3)nc(-c3ccccc3O)nc2c1 [Example 183]	2 to 10
Cc1ccc2c(N3CC[C@@H](CNC(=O)OC(C)C)C3)nc(-c3c(O)cccc3F)nc2c1 [Example 371, Isopropyl ((S)-1-(2-(2-fluoro-6-hydroxyphenyl)-7-methylquinazolin-4-yl)pyrrolidin-3-yl)methylcarbamate]	< 2
Cc1ccc2c(N3CCN(C(=O)[C@H](O)CC(C)C)[C@@H](CO)C3)nc(-c3ccccc3O)nc2c1 [Example 106, (R)-2-Hydroxy-1-((R)-2-(hydroxymethyl)-4-(2-(2-hydroxyphenyl)-7-methylquinazolin-4-yl)piperazin-1-yl)-4-methylpentan-1-one]	> 10
Cc1ccc2c(N3CCN(C(=O)[C@@H](O)C(C)(C)C)CC3)nc(-c3ccccc3O)nc2c1 [Example 166, (S)-2-Hydroxy-1-(4-(2-(2-hydroxyphenyl)-7-methylquinazolin-4-yl)piperazin-1-yl)-3,3-dimethylbutan-1-one]	> 10
O=C(OCC1CCCCO1)N1CCN(c2nc(-c3ccccc3O)nc3ccc(F)cc23)CC1 (stereo not drawn) [Example 160, (Tetrahydro-2H-pyran-2-yl)methyl 4-(6-fluoro-2-(2-hydroxyphenyl)quinazolin-4-yl)piperazine-1-carboxylate]	> 10
Cc1ccc2c(N3CCC(CNC(=O)OCC(C)C)CC3)nc(-c3ccccc3O)nc2c1 [Example 278]	> 10
Cc1ccc2c(N3CCC(NC(=O)OCC4CCCO4)CC3)nc(-c3ccccc3O)nc2c1 (stereo not drawn) [Example 274]	2 to 10
Cc1ccc2c(N3CCC(NC(=O)OCc4ccncc4)CC3)nc(-c3ccccc3O)nc2c1 [Example 228, (Pyridin-4-yl)methyl 1-(2-(2-hydroxyphenyl)-7-methylquinazolin-4-yl)piperidin-4-ylcarbamate]	> 10
Cc1ccc2c(N3CC[C@@H](NC(=O)O[C@H]4CCOC4)C3)nc(-c3c(O)cccc3F)nc2c1 [Example 345, (S)-Tetrahydrofuran-3-yl (R)-1-(2-(2-fluoro-6-hydroxyphenyl)-7-methylquinazolin-4-yl)pyrrolidin-3-ylcarbamate]	2 to 10
